Tests used:
5xFAD mice = assay: Contextual and cued conditioned fear test; type: in vivo, mouse; conditions: diAcCA PO for 3 months
Method: diAcCA or control vehicle was administered three times per week for 3 months to 5xFAD Tg or WT littermate control mice starting at approximately 5 months of age by oral gavage (designated here as “per os” or PO). Three different doses were used (10 mg/kg, 20 mg/kg, or 50 mg/kg). diAcCA was dissolved in olive oil vehicle, a non-polar organic solvent. For vehicle control, we administered olive oil alone. A total of 45 animals were used in this study, with 7–8 animals in each group.
Contextual and cued learning processes in mice rely on the hippocampus and amygdala, respectively. Fear conditioning is used to evaluate both of these processes. During the conditioning period, mice are trained to associate a context (distinctive environment) and a conditioned stimulus (CS, neutral stimulus consisting of a tone and light) with an unpleasant foot shock to which the mice learn to respond by freezing their movement. Here, we evaluated hippocampal function using the contextual and cued conditioned fear test. […]
On day 1, the mice were acclimatized to the chambers in a 5 min session with no shock. […] On day 3, a 5 min trial took place in the original training chamber (context test) and contextual conditioning was evaluated by observing freezing behavior. […]

[1] = mouse, in vivo
Method: We tested both CA and diAcCA compounds by oral gavage/PO at 10 mg/kg. Analysis was performed by LC-MS in the Scripps Florida Drug Development Core (Jupiter, FL, USA). The compounds were formulated in olive oil. CA went into the oil with minimal stirring, but diAcCA required longer stirring. Blood was collected in hematocrit tubes and centrifuged. […] Drug is therefore likely absorbed via enterocyte passage and through chylomicron absorbance, complicating the early time points of the PK curves.
Therefore, we decided to pre-weigh the CA into a vial and, in the vivarium, rapidly dissolve the compound in DMSO and then add Tween80/saline. The compound was dosed within five minutes of being dissolved, and the final concentrations were 5% DMSO and 95% of a 5% Tween80 solution in saline. […] Oral clearance calculations assume 100% bioavailability.
We also determined the stability and bioavailability of diAcCA compared to CA. For this purpose, individual mice were administered CA or diAcCA IV or via oral gavage/PO. For CA, the doses were 3 mg/kg for the IV route and 10 mg/kg for oral gavage/PO, and for diAcCA 10 mg/kg by oral gavage/PO.

CC(=O)Oc1c(C(C)C)cc2c(c1OC(C)=O)[C@@]1(C(=O)O)CCCC(C)(C)[C@@H]1CC2 [diAcCA]
context test of conditioned fear, freezing behavior (5xFAD mice): showed freezing behavior similar to WT mice
half-life (t1/2) [1]: over 12 h
Cmax greater than after CA itself ([1]; po): ~30%
Cmax of CA in plasma ([1]; po, 10 mg/kg): 5.75
Tmax ([1]; po, 10 mg/kg): 1.67 h
average half-life ([1]; po, 10 mg/kg): 12.27 h
mean Cmax of CA ([1]; po, 10 mg/kg): 5.75 µM
t1/2 ([1]; po, 10 mg/kg): 12.27 h
time to peak plasma levels of CA after administration of diAcCA ([1]; po, 10 mg/kg): ~ 15 min
